Measured values as given in patent US8158169B2, “Chinese medicine composition and preparation method and use thereof” (priority 2006, dated 2012).

Tests used:
SOD = test: Activity of SOD of whole brain, rats with natural aging cognition impairment; details: 12 weeks after drug administered, dosage 0.08 mg/kg
Description: (§3) The detection is performed as per the instruction of the reagent kits.

Ach in whole brain = test: Content of ACh in whole brain, rats with Aβ toxicity injury; details: Aβ1-40 rats, four weeks after drug administered, dosage 0.08 mg/kg
[1] = tested on: mice with scopolamine hydrobromide induced memory impairment; test: Step down experiment, mice with scopolamine hydrobromide induced memory impairment; details: scopolamine model mice, dosage 0.08 mg/kg
Description: 1.1.2 The experiment is performed as per Nervous System Drugs Section 5 in Methodology of Pharmaceutical Experiment (XU Shu-yun, et al.).

MDA = test: Content of MDA of whole brain, rats with natural aging cognition impairment; details: 12 weeks after drug administered, dosage 0.08 mg/kg
Description: as §3

[2] = tested on: rats impaired by β-amyloid precursor protein (Aβ) toxicity; test: Morris water maze, rats impaired by Aβ toxicity; type: in vivo; details: Morris water maze swimming; Aβ 1-40 rats, four weeks; dosage 0.08 mg/kg
Description: (§1) The search strategy is mostly marginal or random. […]

[3] = tested on: rats impaired by toxicity; test: Morris water maze, rats impaired by Aβ toxicity; type: in vivo; details: Morris water maze swimming; Aβ 1-40 rats, four weeks; dosage 0.08 mg/kg
Description: as §1

ACh in brain = test: Content of ACh in brain of 2VO rats; details: 3 months after 2VO, two months after drug administered, dosage 0.06 mg/kg
hippocampus nerve cells [4] = test: Ultrastructure of hippocampus nerve cells, rats with natural aging cognition impairment; details: contrary to the model group
hippocampus nerve cells [5] = test: Ultrastructure of hippocampus nerve cells, rats with Aβ toxicity impairment; type: in vivo; details: compared with the model group
Description: There are margination and pyknosis of chromosome of nucleus of hippocampus nerve cells in rats of the model group; the volume of cell is lessened and the cytoplasm is concentrated; the mitochondria are mildly swelling in a few cells; the cell organelle such as the rough endoplasmic reticulum and ribosome are generally normal; and the presynaptic and postsynaptic membranes are not clear. The synaptic space disappears.

[6] = tested on: pyramidal cells of hippocampus; test: HE staining, histomorphology of rats with D-galactose induced brain aging; type: in vivo; details: compared with the model group
Description: The experiment is performed as per Section 2, Chapter 7 of Pathological Tissue Sectioning and Staining Technology (Gong Zhi-jin et al.).
The pyramidal cells of hippocampus of rats in the blank group are tight in alignment, obvious with the upper and lower cell lines and rich in number of cells; the nuclear membrane are clear with distinct nucleolus. The pyramidal cells of hippocampus of rats in the model group is loosening in the alignment, oblique in the cellular structure, swelling in the cell body and irregular in the upper and lower cell lines; Some cells have nucleus pyknosis and deep staining.

2VO rats = test: Morris water maze, VD rats with bilateral common carotid artery permanent ligation (2VO); details: dosage 0.06 mg/kg
Na+-K+-ATP enzyme = details: whole brain, Aβ1-40 rats; four weeks after drug administered; dosage 0.08 mg/kg
Description: as §3

[7] = tested on: mice with ethanol induced memory retrieval impairment; test: Step through experiment, mice with ethanol induced memory retrieval impairment; type: in vivo; details: ethanol model mice, dosage 0.08 mg/kg
[8] = tested on: 5-HT and 5-HIAA in the whole brain; test: Monoamine neurotransmitters in whole brain of APP transgenic mice; type: in vivo; details: positive Huperzine A group
Description: (§2) Acta Pharmacol Sin. 2004; 25: 1118˜23.

[9] = tested on: monoamine neurotransmitters and its metabolites in whole brain; test: Monoamine neurotransmitters and metabolites in whole brain, rats with Aβ toxicity injury; type: in vivo; details: dosage 0.08 mg/kg
Description: as §2

[10] = 15 days after drug administered

C/C=C1\[C@H]2C=C(C)C[C@]1(N)c1ccc(=O)[nH]c1C2 [Huperzine A]
Activity of SOD (SOD): 43.68 ± 2.55 NU/mgProt
Content of ACh (Ach in whole brain): 180.0 ± 23.5 µg/L
Latency [1, 10]: 271.8 ± 54.6 s
Number of Error ([1]; in 5 minutes, 15 days): 0.6 ± 0.9
Content of MDA (MDA): 3.50 ± 0.43 nmol/mgProt
Length of time [2]: 16.3 ± 10.6
Length of route [3]: 436.7 ± 284.4
Content of ACh (ACh in brain): 221.4 ± 41.9 µg/L
ultrastructure of hippocampus nerve cells (hippocampus nerve cells [4]): better morphology and structure and clearer cell membrane
ultrastructure of hippocampus nerve cells (hippocampus nerve cells [5]): better morphology and structure, clearer cell membrane and pre- and post-synaptic membranes
histomorphology of pyramidal cells of hippocampus (HE staining) [6]: in order of alignment with clearer contour of cells
Time of passing through maze, 1 month after ligation (2VO rats; 1 month after ligation): 61.3 ± 25.2 s
Time of passing through maze, 2 months after ligation (2VO rats; 2 months after ligation (one month after drug administered)): 29.1 ± 18.5 s
Time of passing through maze, 3 months after ligation (2VO rats; 3 months after ligation (two months after drug administered)): 10.8 ± 5.6 s
Activity of Na+—K+-ATP (Na+-K+-ATP enzyme): 0.207 ± 0.025 μmoLPi/mgProt/h
Latency [7, 10]: 214.1 ± 127.8 s
Number of Mistakes ([7]; in 5 minutes, 15 days): 1.0 ± 1.3
5-HT and 5-HIAA in the whole brain [8]: decrease to different degrees
5-HIAA [9]: 27.3 ± 3.1 µg/L
5-HT [9]: 41.7 ± 5.9 µg/L
DA [9]: 136.2 ± 8.5 µg/L
DOPAC [9]: 13.4 ± 1.3 µg/L
HVA [9]: 15.4 ± 9.4 µg/L
NE [9]: 75.9 ± 11.3 µg/L
